The test has as its target T1, human GPR119 (Homo sapiens, UniProt Q8TDV5).
T1 construct: expressed in transfected cells
T1 sequence (Q8TDV5 1-335): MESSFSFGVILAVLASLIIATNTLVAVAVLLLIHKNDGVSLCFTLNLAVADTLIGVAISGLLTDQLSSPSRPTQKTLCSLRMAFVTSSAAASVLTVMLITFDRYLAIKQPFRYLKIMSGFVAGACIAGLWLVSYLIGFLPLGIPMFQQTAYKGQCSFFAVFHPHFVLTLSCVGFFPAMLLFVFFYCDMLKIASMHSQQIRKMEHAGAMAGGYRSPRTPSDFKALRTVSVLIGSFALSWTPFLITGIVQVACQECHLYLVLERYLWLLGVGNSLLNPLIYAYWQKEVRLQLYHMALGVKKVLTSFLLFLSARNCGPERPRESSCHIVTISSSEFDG
Kind of test: Functional cellular assay measuring GPR119-mediated cAMP release (HTRF) in HEK-293 cells stably expressing recombinant human GPR119. The format is cell-based. The note with it: cAMP response, cell line expressing human GPR119, 30 minutes at room temperature. Put shortly: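 HEK-293 cells stably expressing recombinant human GPR119, suspended at 400000 cells/mL in HBSS/20 mM HEPES/0.1% BSA/2 mM IBMX, exposed to compound for 30 minutes at room temperature. cAMP detected by HTRF (665/620 nm ratio) after 1 h with reagents in lysis buffer. EC50 taken as concentration giving 50% of maximal activation.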
A general note: TR-FRET usually uses a lanthanide donor and a delayed reading to cut background.

The values that follow come from US9908868B2, “Isoindolinone compounds as GPR119 modulators for the treatment of diabetes, obesity, dyslipidemia and related disorders” (SANOFI, priority 2014, dated 2018).

In the case of `CN(C)C(=O)CN1Cc2ccc(N3CC[C@@H](Oc4ccc(F)cc4)C3=O)cc2C1=O` [Example 2-09, 2-[6-[(3R)-3-(4-fluorophenoxy)-2-oxo-pyrrolidin-1-yl]-1-oxo-isoindolin-2-yl]-N,N-dimethyl-acetamide], the EC50 (usually the concentration giving half of the maximal effect) stood at 739 nM.
Next, `CN(C)C(=O)CN1Cc2ccc(N3CC[C@@H](Oc4ccc(Cl)nc4)C3=O)cc2C1=O` [Example 2-10, 2-[6-[(3R)-3-[(6-chloro-3-pyridyl)oxy]-2-oxo-pyrrolidin-1-yl]-1-oxo-isoindolin-2-yl]-N,N-dimethyl-acetamide]: 2070 nM.
Take `CCC(=O)c1ccc(O[C@@H]2CCN(c3ccc4c(c3)C(=O)N(CC(=O)N(C)C)C4)C2=O)cc1` [Example 2-11, N,N-dimethyl-2-[1-oxo-6-[(3R)-2-oxo-3-(4-propanoylphenoxy)pyrrolidin-1-yl]isoindolin-2-yl]acetamide]: the concentration giving a half-maximal response (EC50) came out at 267 nM.
Turning to `CCCCC(=O)c1ccc(O[C@@H]2CCN(c3ccc4c(c3)C(=O)N(CC(=O)N(C)C)C4)C2=O)cc1` [Example 2-12, N,N-dimethyl-2-[1-oxo-6-[(3R)-2-oxo-3-(4-pentanoylphenoxy)pyrrolidin-1-yl]isoindolin-2-yl]acetamide], the EC50 came out at 44 nM.
As to `CCCC(=O)c1ccc(O[C@@H]2CCN(c3ccc4c(c3)C(=O)N(CC(=O)N(C)C)C4)C2=O)cc1` [Example 2-13, 2-[6-[(3R)-3-(4-butanoylphenoxy)-2-oxo-pyrrolidin-1-yl]-1-oxo-isoindolin-2-yl]-N,N-dimethyl-acetamide], the EC50 was found to be 75 nM.
Next, `CN(C)C(=O)CN1Cc2ccc(N3CC[C@@H](Oc4ccc(Oc5ccc(F)cc5)nc4)C3=O)cc2C1=O` [Example 2-14, 2-[6-[(3R)-3-[[6-(4-fluorophenoxy)-3-pyridyl]oxy]-2-oxo-pyrrolidin-1-yl]-1-oxo-isoindolin-2-yl]-N,N-dimethyl-acetamide]: 85 nM; `CN(C)C(=O)CN1Cc2ccc(N3CC[C@@H](Oc4ccc(C(=O)c5ccc(F)cc5)cc4)C3=O)cc2C1=O` [Example 2-15, 2-[6-[(3R)-3-[4-(4-fluorobenzoyl)phenoxy]-2-oxo-pyrrolidin-1-yl]-1-oxo-isoindolin-2-yl]-N,N-dimethyl-acetamide]: 66 nM.
As to `CN(C)C(=O)CN1Cc2ccc(N3CC[C@@H](Oc4ccc(Oc5ccc(F)cc5)cc4)C3=O)cc2C1=O` [Example 2-16, 2-[6-[(3R)-3-[4-(4-fluorophenoxy)phenoxy]-2-oxo-pyrrolidin-1-yl]-1-oxo-isoindolin-2-yl]-N,N-dimethyl-acetamide], the EC50 turned out to be 47 nM.
On to `CN(C)C(=O)CN1Cc2ccc(N3CC[C@@H](Oc4ccc(F)nc4)C3=O)cc2C1=O` [Example 2-17, 2-[6-[(3R)-3-[(6-fluoro-3-pyridyl)oxy]-2-oxo-pyrrolidin-1-yl]-1-oxo-isoindolin-2-yl]-N,N-dimethyl-acetamide], for which the EC50 amounted to 9360 nM.
For the compound `CN(C)C(=O)CN1Cc2ccc(N3CC[C@@H](Oc4ccc(O[C@@H]5C[C@@H]6C[C@@H]6C5)nc4)C3=O)cc2C1=O` [Example 2-18, 2-[6-[(3R)-3-[[6-[[(1S,5R)-3-bicyclo[3.1.0]hexanyl]oxy]-3-pyridyl]oxy]-2-oxo-pyrrolidin-1-yl]-1-oxo-isoindolin-2-yl]-N,N-dimethyl-acetamide], the EC50 was 74 nM.
Next, `CN(C)C(=O)CN1Cc2ccc(N3CC[C@@H](Oc4ccc(SCC5CC5)nc4)C3=O)cc2C1=O` [Example 2-19, 2-[6-[(3R)-3-[[6-(cyclopropylmethylsulfanyl)-3-pyridyl]oxy]-2-oxo-pyrrolidin-1-yl]-1-oxo-isoindolin-2-yl]-N,N-dimethyl-acetamide]: 47 nM; `CN(C)C(=O)CN1Cc2ccc(N3CC[C@@H](Oc4ccc(SC5CC5)nc4)C3=O)cc2C1=O` [Example 2-20, 2-[6-[(3R)-3-[(6-cyclopropylsulfanyl-3-pyridyl)oxy]-2-oxo-pyrrolidin-1-yl]-1-oxo-isoindolin-2-yl]-N,N-dimethyl-acetamide]: 233 nM.
Under `CN(C)C(=O)CN1Cc2ccc(N3CC[C@@H](Oc4ccc(C(=O)CC5CC5)cc4)C3=O)cc2C1=O` [Example 2-21, 2-[6-[(3R)-3-[4-(2-cyclopropylacetyl)phenoxy]-2-oxo-pyrrolidin-1-yl]-1-oxo-isoindolin-2-yl]-N,N-dimethyl-acetamide] stands 72 nM.
Regarding `CN(C)C(=O)CN1Cc2ccc(N3CC[C@@H](Oc4ccc(SC(F)(F)F)cc4)C3=O)cc2C1=O` [Example 2-22, N,N-dimethyl-2-[1-oxo-6-[(3R)-2-oxo-3-[4-(trifluoromethylsulfanyl)phenoxy]pyrrolidin-1-yl]isoindolin-2-yl]acetamide], the EC50 is 41 nM.
Take `CN(C)C(=O)CN1Cc2ccc(N3CC[C@@H](Oc4ccc(Oc5ccccn5)cc4)C3=O)cc2C1=O` [Example 2-23, N,N-dimethyl-2-[1-oxo-6-[(3R)-2-oxo-3-[4-(2-pyridyloxy)phenoxy]pyrrolidin-1-yl]isoindolin-2-yl]acetamide]: the EC50 was found to be 261 nM.
On to `CN(C)C(=O)CN1Cc2ccc(N3CC[C@@H](Oc4ccc(N5CCOCC5)cc4)C3=O)cc2C1=O` [Example 2-24, N,N-dimethyl-2-[6-[(3R)-3-(4-morpholinophenoxy)-2-oxo-pyrrolidin-1-yl]-1-oxo-isoindolin-2-yl]acetamide], for which the EC50 worked out at 21000 nM.
Next, `CN(C)C(=O)CN1Cc2ccc(N3CC[C@@H](Oc4ccc(-n5cncn5)cc4)C3=O)cc2C1=O` [Example 2-25, N,N-dimethyl-2-[1-oxo-6-[(3R)-2-oxo-3-[4-(1,2,4-triazol-1-yl)phenoxy]pyrrolidin-1-yl]isoindolin-2-yl]acetamide]: 12000 nM; `CC(=O)N1CCN(c2ccc(O[C@@H]3CCN(c4ccc5c(c4)C(=O)N(CC(=O)N(C)C)C5)C3=O)cc2)CC1` [Example 2-26, 2-[6-[(3R)-3-[4-(4-acetylpiperazin-1-yl)phenoxy]-2-oxo-pyrrolidin-1-yl]-1-oxo-isoindolin-2-yl]-N,N-dimethyl-acetamide]: 1060 nM; `CN(C)C(=O)CN1Cc2ccc(N3CC[C@@H](Oc4ccc(S(F)(F)(F)(F)F)cc4)C3=O)cc2C1=O` [Example 2-27, N,N-dimethyl-2-[1-oxo-6-[(3R)-2-oxo-3-[4-(pentafluoro-λ{6}-sulfanyl)phenoxy]pyrrolidin-1-yl]isoindolin-2-yl]acetamide]: 160 nM.
For the compound `CN(C)C(=O)CN1Cc2ccc(N3CC[C@@H](Oc4ccc(N5CCCC5=O)cc4)C3=O)cc2C1=O` [Example 2-28, N,N-dimethyl-2-[1-oxo-6-[(3R)-2-oxo-3-[4-(2-oxopyrrolidin-1-yl)phenoxy]pyrrolidin-1-yl]isoindolin-2-yl]acetamide], the EC50 is 1470 nM.
For `CN(C)C(=O)CN1Cc2ccc(N3CC[C@@H](Oc4ccc(-c5nnco5)cc4)C3=O)cc2C1=O` [Example 2-29, N,N-dimethyl-2-[6-[(3R)-3-[4-(1,3,4-oxadiazol-2-yl)phenoxy]-2-oxo-pyrrolidin-1-yl]-1-oxo-isoindolin-2-yl]acetamide], the EC50 was 3390 nM.
In the case of `CN(C)C(=O)CN1Cc2ccc(N3CC[C@@H](Oc4ccc(OCC(F)(F)F)cc4)C3=O)cc2C1=O` [Example 2-30, N,N-dimethyl-2-[1-oxo-6-[(3R)-2-oxo-3-[4-(2,2,2-trifluoroethoxy)phenoxy]pyrrolidin-1-yl]isoindolin-2-yl]acetamide], the EC50 is 82 nM.
